In patent US12545944B2, “Method of detection” (priority 2017, dated 2026):

Key:
[1] = cited from earlier work
[2] = tested on: carbapenemase-producing E. coli strains; experiment: Colistin MIC by broth microdilution (BMD), CLSI/EUCAST; format: cell-based, Escherichia coli

**Q.** With `COCCOC` [1,2-dimethoxy-ethane (glyme, DME), 1,2-dimethoxy-ethane] as the compound, how does the Solubility in water [1] read?
**A.** The Solubility in water was “Miscible”.

**Q.** With `CC(C)O` [2-propanol] as the compound, how does the Solubility in water [1] read?
**A.** The Solubility in water was “Miscible”.

**Q.** With `CN(C)P(N(C)C)N(C)C` [Hexamethyl-phosphorous triamide (HMPT), Hexamethylphosphorous triamide] as the compound, how does the Solubility in water [1] read?
**A.** The Solubility in water was “Miscible”.

**Q.** For `CN1CCCC1=O` [N-methyl-2-pyrrolidinone (NMP), N-methyl-2-pyrrolidinone], which Solubility in water [1] is on record?
**A.** The Solubility in water was 10 g/100 g.

**Q.** With `Clc1ccccc1` [chlorobenzene] as the compound, how does the Solubility in water [1] read?
**A.** Its Solubility in water is 0.05 g/100 g.

**Q.** For `C1CCCCC1` [cyclohexane], which Solubility in water [1] is on record?
**A.** The Solubility in water was less than 0.1 g/100 g.

**Q.** Which Solubility in water [1] does the source give for `COCCOCCOC` [diethylene glycol dimethyl ether] here?
**A.** Its Solubility in water is “Miscible”.

**Q.** For `C[S+](C)[O-]` [dimethyl sulfoxide (DMSO), dimethyl sulfoxide], which Solubility in water [1] is on record?
**A.** Its Solubility in water is 25.3 g/100 g.

**Q.** Which Solubility in water [1] does the source give for `CCO` [ethanol] here?
**A.** The Solubility in water was “Miscible”.

**Q.** Which Solubility in water [1] does the source give for `CCOC(C)=O` [ethyl acetate] here?
**A.** The Solubility in water was 8.7 g/100 g.

**Q.** Which Solubility in water [1] does the source give for `OCC(O)CO` [glycerin] here?
**A.** Its Solubility in water is “Miscible”.

**Q.** For `CCCCCC` [hexane], which Solubility in water [1] is on record?
**A.** The Solubility in water was 0.014 g/100 g.

**Q.** Which “Colistin MIC” value ([2]; KPC-2 producing E. coli, N=1, mcr-1/-2 PCR negative) does the source give for Colistin (Polymyxin E) here?
**A.** The value was 0.25 mg/L.

**Q.** What about the “Colistin MIC” value ([2]; KPC-3 producing E. coli, N=1, mcr-1/-2 PCR negative) of the same compound?
**A.** The value was 0.25 mg/L.

**Q.** And the “Colistin MIC” value ([2]; NDM-1 producing E. coli, N=1, mcr-1/-2 PCR negative)?
**A.** Its value is 0.5 mg/L.

**Q.** And the “Colistin MIC” value ([2]; NDM-1 producing E. coli, N=1, mcr-1 PCR positive, PRR 1.73 ± 0.23)?
**A.** Its value is 4 mg/L.

**Q.** What about the “Colistin MIC” value ([2]; NDM-1 producing E. coli, N=1, mcr-1 PCR positive, PRR 2.34 ± 0.12) of the same compound?
**A.** Its value is 4 mg/L.

**Q.** What about the “Colistin MIC” value ([2]; NDM-1 producing E. coli, N=3, mcr-1/-2 PCR negative) of the same compound?
**A.** Its value is 0.25 mg/L.

**Q.** And the “Colistin MIC” value ([2]; NDM-5 producing E. coli, N=2, mcr-1/-2 PCR negative)?
**A.** The value was 0.25 mg/L.

**Q.** And the “Colistin MIC” value ([2]; NDM-5 producing E. coli, N=3, mcr-1/-2 PCR negative)?
**A.** The value was 0.5 mg/L.

**Q.** What about the “Colistin MIC” value ([2]; OXA-48 producing E. coli, N=1, mcr-1/-2 PCR negative) of the same compound?
**A.** Its value is 1 mg/L.

**Q.** What about the “Colistin MIC” value ([2]; OXA-48 producing E. coli, N=1, mcr-1 PCR positive, PRR 1.29 ± 0.63) of the same compound?
**A.** Its value is 4 mg/L.

**Q.** What about the “Colistin MIC” value ([2]; OXA-48 producing E. coli, N=26, mcr-1/-2 PCR negative) of the same compound?
**A.** Its value is 0.5 mg/L.

**Q.** And the “Colistin MIC” value ([2]; OXA-48 producing E. coli, N=27, mcr-1/-2 PCR negative)?
**A.** The value was 0.25 mg/L.

**Q.** What about the “Colistin MIC” value ([2]; OXA-181 + NDM-5 producing E. coli, N=1, mcr-1/-2 PCR negative) of the same compound?
**A.** Its value is 0.25 mg/L.

**Q.** And the “Colistin MIC” value ([2]; OXA-181 producing E. coli, N=4, mcr-1/-2 PCR negative)?
**A.** Its value is 0.25 mg/L.

**Q.** What about the “Colistin MIC” value ([2]; OXA-204 producing E. coli, N=1, mcr-1/-2 PCR negative) of the same compound?
**A.** The value was 0.25 mg/L.

**Q.** And the “Colistin MIC” value ([2]; OXA-244 producing E. coli, N=1 (first line), mcr-1/-2 PCR negative)?
**A.** The value was 0.25 mg/L.

**Q.** And the “Colistin MIC” value ([2]; OXA-244 producing E. coli, N=1 (second line), mcr-1/-2 PCR negative)?
**A.** Its value is 0.5 mg/L.

**Q.** What about the “Colistin MIC” value ([2]; VIM-1 producing E. coli, N=1, mcr-1/-2 PCR negative) of the same compound?
**A.** Its value is 0.5 mg/L.

**Q.** What about the “Colistin MIC” value ([2]; VIM-4 producing E. coli, N=1, mcr-1/-2 PCR negative) of the same compound?
**A.** The value was 0.25 mg/L.

**Q.** And the MICs of colistin ([2]; two NDM-1 and one OXA-48 producer, resistant to colistin, positive for the mcr-1 gene)?
**A.** The MICs of colistin was 4 mg/L.
